The values that follow come from patent US9663508B2, “Biaryl acyl-sulfonamide compounds as sodium channel inhibitors” (AMGEN INC., priority 2013, dated 2017).

Read-outs that look alike come from different tables or passages of the source.

The target in the assay is human Nav1.7 (Homo sapiens (Human), UniProt Q15858). Briefly: Nav 1.7 in vitro PatchXpress (PX) assay. Format: cell-based.
Chain of human Nav1.7 (Q15858 whole entry): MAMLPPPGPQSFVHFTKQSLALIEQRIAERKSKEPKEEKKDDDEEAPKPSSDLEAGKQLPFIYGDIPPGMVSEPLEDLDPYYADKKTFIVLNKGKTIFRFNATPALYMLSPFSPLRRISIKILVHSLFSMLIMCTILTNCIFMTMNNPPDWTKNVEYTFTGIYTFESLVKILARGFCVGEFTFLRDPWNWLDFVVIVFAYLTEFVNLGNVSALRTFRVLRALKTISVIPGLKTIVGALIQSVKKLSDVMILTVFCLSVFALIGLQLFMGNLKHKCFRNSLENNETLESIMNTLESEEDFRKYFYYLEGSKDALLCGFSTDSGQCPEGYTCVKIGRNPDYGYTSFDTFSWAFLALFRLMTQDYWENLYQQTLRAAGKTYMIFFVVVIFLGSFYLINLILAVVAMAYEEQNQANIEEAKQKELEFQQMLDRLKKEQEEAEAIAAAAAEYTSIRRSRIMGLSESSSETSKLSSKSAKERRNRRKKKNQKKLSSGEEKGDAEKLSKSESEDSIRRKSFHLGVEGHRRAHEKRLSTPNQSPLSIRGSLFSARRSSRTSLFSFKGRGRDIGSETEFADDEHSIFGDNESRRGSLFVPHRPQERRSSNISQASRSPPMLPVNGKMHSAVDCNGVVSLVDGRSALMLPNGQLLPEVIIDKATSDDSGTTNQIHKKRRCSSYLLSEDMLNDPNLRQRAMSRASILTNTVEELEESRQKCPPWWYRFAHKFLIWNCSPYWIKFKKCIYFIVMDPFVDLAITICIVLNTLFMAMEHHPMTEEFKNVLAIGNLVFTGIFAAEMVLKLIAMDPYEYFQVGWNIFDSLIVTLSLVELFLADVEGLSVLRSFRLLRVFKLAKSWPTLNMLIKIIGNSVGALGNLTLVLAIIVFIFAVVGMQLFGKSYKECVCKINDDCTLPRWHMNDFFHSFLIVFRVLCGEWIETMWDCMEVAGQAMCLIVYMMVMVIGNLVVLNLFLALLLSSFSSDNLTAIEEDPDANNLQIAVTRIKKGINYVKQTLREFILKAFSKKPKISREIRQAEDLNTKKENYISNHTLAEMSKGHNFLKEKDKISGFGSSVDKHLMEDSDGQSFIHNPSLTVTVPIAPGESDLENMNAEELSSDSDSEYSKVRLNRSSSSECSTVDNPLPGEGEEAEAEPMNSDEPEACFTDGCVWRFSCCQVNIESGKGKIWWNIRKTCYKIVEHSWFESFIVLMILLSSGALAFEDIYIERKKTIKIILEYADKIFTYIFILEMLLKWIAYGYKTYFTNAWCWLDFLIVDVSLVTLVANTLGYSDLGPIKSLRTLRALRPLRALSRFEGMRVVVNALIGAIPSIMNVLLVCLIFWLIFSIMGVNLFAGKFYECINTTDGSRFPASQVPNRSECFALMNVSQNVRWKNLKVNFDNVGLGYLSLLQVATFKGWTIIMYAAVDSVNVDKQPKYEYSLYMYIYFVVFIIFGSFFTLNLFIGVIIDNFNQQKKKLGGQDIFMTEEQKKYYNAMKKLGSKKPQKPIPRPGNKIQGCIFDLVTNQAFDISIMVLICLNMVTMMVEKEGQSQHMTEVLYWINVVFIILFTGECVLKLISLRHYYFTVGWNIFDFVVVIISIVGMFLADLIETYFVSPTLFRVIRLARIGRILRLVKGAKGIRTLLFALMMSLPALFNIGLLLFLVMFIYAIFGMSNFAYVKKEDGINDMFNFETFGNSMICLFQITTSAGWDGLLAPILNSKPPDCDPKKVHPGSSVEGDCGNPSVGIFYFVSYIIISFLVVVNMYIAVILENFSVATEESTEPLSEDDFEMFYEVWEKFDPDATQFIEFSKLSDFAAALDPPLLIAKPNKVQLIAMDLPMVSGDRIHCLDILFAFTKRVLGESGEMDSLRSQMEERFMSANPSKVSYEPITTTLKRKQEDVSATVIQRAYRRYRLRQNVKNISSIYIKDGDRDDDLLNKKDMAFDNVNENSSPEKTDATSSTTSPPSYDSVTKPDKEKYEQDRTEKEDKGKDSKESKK

Compound `CS(=O)(=O)NC(=O)c1ccc(-c2cnc(Oc3ccc4ccccc4c3)c(Cl)c2)c(OC(F)F)c1` [Example 446, 4-(5-chloro-6-(2-naphthalenyloxy)-3-pyridinyl)-3-(difluoromethoxy)-N-(methylsulfonyl)benzamide] showed a half-maximal inhibitory concentration (IC50) of 74.8 nM.

With `CS(=O)(=O)NC(=O)c1ccc(-c2cnc(Oc3ccc(Cl)cc3)c(Cl)c2)c(OC(F)F)c1` [Example 466, 4-(5-chloro-6-(4-chlorophenoxy)-3-pyridinyl)-3-(difluoromethoxy)-N-(methylsulfonyl)benzamide], the IC50 amounted to 68.8 nM.

For the compound `CS(=O)(=O)NC(=O)c1ccc(-c2cnc(Oc3cccc4ccccc34)c(Cl)c2)c(OC(F)F)c1` [Example 452, 4-(5-chloro-6-(1-naphthalenyloxy)-3-pyridinyl)-3-(difluoromethoxy)-N-(methylsulfonyl)benzamide], half-maximal inhibition (IC50) was put at 59.9 nM. In turn, `CCS(=O)(=O)NC(=O)c1ccc(-c2cnc(Oc3c(F)ccc(F)c3F)c(Cl)c2)c(OC)c1` [Example 791, 4-(5-chloro-6-(2,3,6-trifluorophenoxy)-3-pyridinyl)-N-(ethylsulfonyl)-3-methoxybenzamide] showed an IC50 (in-vitro Nav 1.7 PX data) of 39.4 nM. On the same count and under the same terms, under `COc1cc(C(=O)NS(C)(=O)=O)c(F)cc1-c1cnc(Oc2c(C)cccc2Cl)c(Cl)c1` [Example 748, 4-(5-chloro-6-(2-chloro-6-methylphenoxy)-3-pyridinyl)-2-fluoro-5-methoxy-N-(methylsulfonyl)benzamide] stands 76.4 nM; under `COc1cc(C(=O)NS(C)(=O)=O)c(F)cc1-c1cnc(O[C@@H]2CC[C@@H]2C)c(Cl)c1` [Example 770, 4-(5-chloro-6-(((1R,2S)-2-methylcyclobutyl)oxy)-3-pyridinyl)-2-fluoro-5-methoxy-N-(methylsulfonyl)benzamide], 110 nM; under `CC[C@@H](Oc1ncc(-c2cc(F)c(C(=O)NS(C)(=O)=O)cc2OC)cc1Cl)C(F)(F)F` [Example 732, 4-(5-chloro-6-(((1R)-1-(trifluoromethyl)propyl)oxy)-3-pyridinyl)-2-fluoro-5-methoxy-N-(methylsulfonyl)benzamide, 4-(5-chloro-6-(((1S)-1-(trifluoromethyl)propyl)oxy)-3-pyridinyl)-2-fluoro-5-methoxy-N-(methylsulfonyl)benzamide], 104 nM.

`COc1cc(C(=O)NS(C)(=O)=O)ccc1-c1cnc(OCCc2ccccc2)c(C#N)c1` [Example 539, 4-(5-cyano-6-(2-phenylethoxy)-3-pyridinyl)-3-methoxy-N-(methylsulfonyl)benzamide] came in with an IC50 of 94.2 nM. With `CCOc1cc(C(=O)NS(C)(=O)=O)c(F)cc1-c1cnc(Oc2cccc(Cl)c2C)c(Cl)c1` [Example 779, 4-(5-chloro-6-(3-chloro-2-methylphenoxy)-3-pyridinyl)-5-ethoxy-2-fluoro-N-(methylsulfonyl)benzamide], half-maximal inhibition (in-vitro Nav 1.7 PX data) (IC50) was put at 94.7 nM. Take `C[C@@H](Oc1ncc(-c2cc(F)c(C(=O)NS(C)(=O)=O)cc2F)cc1Cl)c1ccc(F)cc1F` [Example 574, 4-(5-chloro-6-((1R)-1-(2,4-difluorophenyl)ethoxy)-3-pyridinyl)-2,5-difluoro-N-(methylsulfonyl)benzamide]: 88.8 nM corresponded to half-maximal inhibition (IC50). For the setting “in-vitro Nav 1.7 PX data”, `Cc1cc(C(=O)NS(C)(=O)=O)c(F)cc1-c1cnc(OCC(F)F)c(Cl)c1` [Example 808, 4-(5-chloro-6-(2,2-difluoroethoxy)-3-pyridinyl)-2-fluoro-5-methyl-N-(methylsulfonyl)benzamide] showed an IC50 of 2430 nM. In the case of `Cc1cc(C(=O)NS(C)(=O)=O)c(F)cc1-c1cnc(Oc2ccc(OC(C)C)cc2)c(Cl)c1` [Example 663, 4-(5-chloro-6-(4-(1-methylethoxy)phenoxy)-3-pyridinyl)-2-fluoro-5-methyl-N-(methylsulfonyl)benzamide], it took 108 nM to reach half-maximal inhibition (IC50). For `Cc1cc(C(=O)NS(C)(=O)=O)c(F)cc1-c1cnc(NC(C)(C)C)c(Cl)c1` [Example 815, 4-(6-(tert-butylamino)-5-chloro-3-pyridinyl)-2-fluoro-5-methyl-N-(methylsulfonyl)benzamide], the IC50 (in-vitro Nav 1.7 PX data) was 231 nM. Turning to `Cc1cc(C(=O)NS(C)(=O)=O)c(F)cc1-c1ccc(CC2CC2)c(Cl)c1` [Example 813, 3′-chloro-4′-(cyclopropylmethyl)-5-fluoro-2-methyl-N-(methylsulfonyl)-4-biphenylcarboxamide], the IC50 (in-vitro Nav 1.7 PX data) turned out to be 141 nM.

The compound `CS(=O)(=O)NC(=O)c1ccc(-c2cnc(Oc3cccc4ccccc34)c(Cl)c2)c(OC2COC2)c1` [Example 419, 4-(5-chloro-6-(1-naphthalenyloxy)-3-pyridinyl)-N-(methylsulfonyl)-3-(3-oxetanyloxy)benzamide] registered an IC50 of 98 nM. For the setting “in-vitro Nav 1.7 PX data”, `COc1cc(C(=O)NS(C)(=O)=O)c(F)cc1-c1cnc(OCc2ccc(Cl)cc2)c(Cl)c1` [Example 750, 4-(5-chloro-6-((4-chlorobenzyl)oxy)-3-pyridinyl)-2-fluoro-5-methoxy-N-(methylsulfonyl)benzamide] returned an IC50 of 74.7 nM. In turn, `COc1cc(C(=O)NS(C)(=O)=O)c(F)cc1-c1cnc(Oc2ccc(F)c(C)c2)c(Cl)c1` [Example 754, 4-(5-chloro-6-(4-fluoro-3-methylphenoxy)-3-pyridinyl)-2-fluoro-5-methoxy-N-(methylsulfonyl)benzamide] yielded an IC50 (in-vitro Nav 1.7 PX data) of 92.2 nM.

Take `COc1cc(C(=O)NS(C)(=O)=O)ccc1-c1cnc(Oc2ccc(C)c(Cl)c2)c(C#N)c1` [Example 829, 4-(6-(3-chloro-4-methylphenoxy)-5-cyano-3-pyridinyl)-3-methoxy-N-(methylsulfonyl)benzamide]: inhibition (in-vitro Nav 1.7 PX data) was half-maximal at 50.5 nM (IC50). On to `COc1cc(C(=O)NS(C)(=O)=O)ccc1-c1cnc(Oc2cc(Cl)ccc2C)c(Cl)c1` [Example 379, 4-(5-chloro-6-(5-chloro-2-methylphenoxy)-3-pyridinyl)-3-methoxy-N-(methylsulfonyl)benzamide], for which inhibition was half-maximal at 54.6 nM (IC50). On to `CS(=O)(=O)NC(=O)c1ccc(-c2cnc(Oc3cccc(C(F)(F)F)c3)c(Cl)c2)c(OC(F)F)c1` [Example 456, 4-(5-chloro-6-(3-(trifluoromethyl)phenoxy)-3-pyridinyl)-3-(difluoromethoxy)-N-(methylsulfonyl)benzamide], for which the IC50 stood at 64 nM. As for `COc1cc(C(=O)NS(C)(=O)=O)c(F)cc1-c1cnc(Oc2cc3ccccc3cc2Cl)c(Cl)c1` [Example 715, 4-(5-chloro-6-((3-chloro-2-naphthalenyl)oxy)-3-pyridinyl)-2-fluoro-5-methoxy-N-(methylsulfonyl)benzamide], the IC50 (in-vitro Nav 1.7 PX data) amounted to 98.8 nM. Turning to `COc1cc(C(=O)NS(C)(=O)=O)c(F)cc1-c1cnc(Oc2c(Cl)cccc2Cl)c(Cl)c1` [Example 764, 4-(5-chloro-6-(2,6-dichlorophenoxy)-3-pyridinyl)-2-fluoro-5-methoxy-N-(methylsulfonyl)benzamide], the midpoint of inhibition (in-vitro Nav 1.7 PX data), the IC50, lay at 36.7 nM.

Consider `COc1cc(C(=O)NS(C)(=O)=O)c(F)cc1-c1cnc(Oc2cccc(C)c2Cl)c(Cl)c1` [Example 760, 4-(5-chloro-6-(2-chloro-3-methylphenoxy)-3-pyridinyl)-2-fluoro-5-methoxy-N-(methylsulfonyl)benzamide], for which half-maximal inhibition (in-vitro Nav 1.7 PX data) (IC50) required 62.4 nM.

In turn, `CC[C@H](Oc1ncc(-c2cc(F)c(C(=O)NS(C)(=O)=O)cc2C)cc1Cl)c1cccc(Cl)c1` [Example 676, 4-(5-chloro-6-(((1S)-1-(3-chlorophenyl)propyl)oxy)-3-pyridinyl)-2-fluoro-5-methyl-N-(methylsulfonyl)benzamide] showed an IC50 of 58.6 nM. In turn, `COc1cc(C(=O)NS(C)(=O)=O)ccc1-c1cnc(Oc2ccc3c(c2)CCC3)c(Cl)c1` [Example 580, 4-(5-chloro-6-(2,3-dihydro-1H-inden-5-yloxy)-3-pyridinyl)-3-methoxy-N-(methylsulfonyl)benzamide] displayed a half-maximal inhibitory concentration (IC50) of 66.1 nM. For the compound `COc1cc(C(=O)NS(C)(=O)=O)c(F)cc1-c1cnc(Oc2cc(F)ccc2C)c(Cl)c1` [Example 743, 4-(5-chloro-6-(5-fluoro-2-methylphenoxy)-3-pyridinyl)-2-fluoro-5-methoxy-N-(methylsulfonyl)benzamide], half-maximal inhibition (in-vitro Nav 1.7 PX data) (IC50) required 96.2 nM. As to `COc1cc(C(=O)NS(C)(=O)=O)c(F)cc1-c1cnc(N[C@H]2CC23CCCC3)c(Cl)c1` [Example 771, 4-(5-chloro-6-((1S)-spiro[2.4]hept-1-ylamino)-3-pyridinyl)-2-fluoro-5-methoxy-N-(methylsulfonyl)benzamide], it took 86.8 nM to reach half-maximal inhibition (in-vitro Nav 1.7 PX data) (IC50). Compound `COc1cc(C(=O)NS(C)(=O)=O)ccc1-c1cnc(Oc2cc(C)c(Cl)c(C)c2)c(Cl)c1` [Example 364, 4-(5-chloro-6-(4-chloro-3,5-dimethylphenoxy)-3-pyridinyl)-3-methoxy-N-(methylsulfonyl)benzamide] returned an IC50 of 64.3 nM. `Cc1cc(Cl)cc(Cl)c1Oc1ncc(-c2cc(F)c(C(=O)NS(C)(=O)=O)cc2Cl)cc1Cl` [Example 598, 5-chloro-4-(5-chloro-6-(2,4-dichloro-6-methylphenoxy)-3-pyridinyl)-2-fluoro-N-(methylsulfonyl)benzamide] had an IC50 of 18.4 nM. `COc1cc(C(=O)NS(C)(=O)=O)c(F)cc1-c1cnc(Sc2ccc(C)cc2)c(Cl)c1` [Example 728, 4-(5-chloro-6-((4-methylphenyl)sulfanyl)-3-pyridinyl)-2-fluoro-5-methoxy-N-(methylsulfonyl)benzamide] showed an IC50 (in-vitro Nav 1.7 PX data) of 49.5 nM. In the case of `COc1cc(C(=O)NS(C)(=O)=O)c(F)cc1-c1cnc(Oc2c(Cl)cc(F)cc2Cl)c(Cl)c1` [Example 737, 4-(5-chloro-6-(2,6-dichloro-4-fluorophenoxy)-3-pyridinyl)-2-fluoro-5-methoxy-N-(methylsulfonyl)benzamide], inhibition (in-vitro Nav 1.7 PX data) was half-maximal at 100 nM (IC50). In turn, `COc1cc(C(=O)NS(C)(=O)=O)c(F)cc1-c1cnc(O[C@H](C)c2ccccc2)c(Cl)c1` [Example 749, 4-(5-chloro-6-((1R)-1-phenylethoxy)-3-pyridinyl)-2-fluoro-5-methoxy-N-(methylsulfonyl)benzamide] displayed an IC50 (in-vitro Nav 1.7 PX data) of 93.6 nM. In the case of `COc1cc(C(=O)NS(C)(=O)=O)c(F)cc1-c1cnc(Oc2ccc(F)c(Cl)c2)c(Cl)c1` [Example 741, 4-(5-chloro-6-(3-chloro-4-fluorophenoxy)-3-pyridinyl)-2-fluoro-5-methoxy-N-(methylsulfonyl)benzamide], where the note is “in-vitro Nav 1.7 PX data”, the midpoint of inhibition, the IC50, lay at 56 nM.

As a reminder, the IC50 is the midpoint of a concentration-inhibition curve. Higher therefore signals lower potency.
